Source: ChEMBL document CHEMBL5257035, “Nucleoside Derived Antibiotics to Fight Microbial Drug Resistance: New Utilities for an Established Class of Drugs?” (J Med Chem, 2016)
In brackets after ≈: the same amount, converted by molar mass.

Columns and labels:
[1] = molecular target: Phospho-N-acetylmuramoyl-pentapeptide-transferase (Bacillus subtilis (strain 168)) (UniProt Q03521); experiment: Inhibition of Bacillus subtilis MraY at 11.4 uM relative to control
Streptococcus pyogenes = experiment: Antimicrobial activity against Streptococcus pyogenes ATCC 12344 assessed as reduction in microbial growth by broth microdilution method; assay type: functional
Staphylococcus aureus [2] = experiment: Antimicrobial activity against methicillin-resistant Staphylococcus aureus 10925 assessed as reduction in microbial growth by broth microdilution method; assay type: functional
Staphylococcus aureus [3] = experiment: Antibacterial activity against methicillin-resistant Staphylococcus aureus assessed as reduction in bacterial growth by broth dilution method; assay type: functional
Proline--tRNA ligase = Proline--tRNA ligase (Escherichia coli, UniProt P16659); experiment: Binding affinity to Escherichia coli K12 Prolyl-tRNA synthetase
Sequence of Proline--tRNA ligase (P16659 whole entry): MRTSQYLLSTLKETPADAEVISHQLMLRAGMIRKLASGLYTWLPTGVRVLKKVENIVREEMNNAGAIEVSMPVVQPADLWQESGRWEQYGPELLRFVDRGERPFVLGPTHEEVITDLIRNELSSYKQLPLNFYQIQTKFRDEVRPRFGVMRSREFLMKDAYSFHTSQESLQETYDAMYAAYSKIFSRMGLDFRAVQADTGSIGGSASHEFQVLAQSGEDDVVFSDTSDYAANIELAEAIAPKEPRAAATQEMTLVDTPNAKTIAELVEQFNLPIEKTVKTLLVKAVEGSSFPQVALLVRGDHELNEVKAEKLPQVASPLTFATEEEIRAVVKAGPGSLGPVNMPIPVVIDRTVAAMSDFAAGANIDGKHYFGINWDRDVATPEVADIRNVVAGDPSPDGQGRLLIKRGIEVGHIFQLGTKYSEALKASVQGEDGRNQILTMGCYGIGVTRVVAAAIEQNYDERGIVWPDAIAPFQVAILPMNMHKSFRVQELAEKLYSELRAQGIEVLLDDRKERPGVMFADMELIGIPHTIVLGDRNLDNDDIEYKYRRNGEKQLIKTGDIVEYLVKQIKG

Pseudomonas aeruginosa [4] = experiment: Antibacterial activity against Pseudomonas aeruginosa infected in mouse; assay type: functional
Pseudomonas aeruginosa [5] = experiment: Antibacterial activity against Pseudomonas aeruginosa assessed as bacterial growth inhibition; assay type: functional
[6] = molecular target: Phospho-N-acetylmuramoyl-pentapeptide-transferase (Bacillus subtilis (strain 168)) (UniProt Q03521); experiment: Inhibition of Bacillus subtilis MraY at 2.3 uM relative to control
[7] = molecular target: Phospho-N-acetylmuramoyl-pentapeptide-transferase (Bacillus subtilis (strain 168), UniProt Q03521); experiment: Inhibition of Bacillus subtilis MraY
Sequence of Phospho-N-acetylmuramoyl-pentapeptide-transferase (Bacillus subtilis (strain 168), UniProt Q03521) (Q03521 whole entry): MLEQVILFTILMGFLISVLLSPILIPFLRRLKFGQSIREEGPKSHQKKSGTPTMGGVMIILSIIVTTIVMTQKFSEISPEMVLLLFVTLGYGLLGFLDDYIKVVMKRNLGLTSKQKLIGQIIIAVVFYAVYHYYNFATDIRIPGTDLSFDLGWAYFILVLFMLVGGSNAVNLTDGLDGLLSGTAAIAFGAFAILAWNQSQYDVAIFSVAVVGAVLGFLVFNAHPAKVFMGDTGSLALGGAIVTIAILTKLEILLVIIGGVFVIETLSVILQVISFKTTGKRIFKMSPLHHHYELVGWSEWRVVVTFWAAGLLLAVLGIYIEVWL

Pseudomonas aeruginosa [8] = experiment: Antibacterial activity against Pseudomonas aeruginosa ATCC 27853 assessed as bacterial growth inhibition at 32 ug/ml measured after 16 hrs by broth microdilution method; assay type: functional; conditions: dose 32 µg/ml
[9] = Inhibition of Bacillus stearothermophilus tyrosyl tRNA synthetase; parameters: species or system Geobacillus stearothermophilus
Pseudomonas aeruginosa [10] = experiment: Antimicrobial activity against Pseudomonas aeruginosa ATCC 27853 assessed as inhibition of microbial growth
Escherichia coli = experiment: Antibacterial activity against Escherichia coli K12 assessed as bacterial growth inhibition by broth microdilution method; assay type: functional
Candida albicans = experiment: Antifungal activity against wild type Candida albicans; assay type: functional
[11] = molecular target: T1, Phospho-N-acetylmuramoyl-pentapeptide-transferase (Escherichia coli, UniProt E2QF15); experiment: Inhibition of MraY in Escherichia coli
T1 sequence (E2QF15 whole entry): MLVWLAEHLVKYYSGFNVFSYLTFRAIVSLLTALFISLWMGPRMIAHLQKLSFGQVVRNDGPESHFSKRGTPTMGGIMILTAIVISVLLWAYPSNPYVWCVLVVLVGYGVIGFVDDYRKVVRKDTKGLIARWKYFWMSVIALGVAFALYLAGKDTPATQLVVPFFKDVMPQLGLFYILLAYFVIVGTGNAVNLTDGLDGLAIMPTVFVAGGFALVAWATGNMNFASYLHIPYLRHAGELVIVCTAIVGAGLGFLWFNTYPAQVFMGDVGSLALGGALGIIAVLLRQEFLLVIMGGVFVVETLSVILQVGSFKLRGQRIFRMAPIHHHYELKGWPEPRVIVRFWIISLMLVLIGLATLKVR

Pseudomonas aeruginosa [12] = experiment: Antibacterial activity against Pseudomonas aeruginosa ATCC 27853 assessed as reduction in microbial growth by broth microdilution method; assay type: functional
[13] = tested on: Mycobacterium tuberculosis; experiment: Antimycobacterial activity against Mycobacterium tuberculosis H37Rv assessed as reduction in bacterial growth; assay type: functional

Sequence of Phospho-N-acetylmuramoyl-pentapeptide-transferase (Bacillus subtilis (strain 168)) (Q03521 whole entry): as the sequence (Q03521 whole entry) above

## NC[C@H]1O[C@@H](OC[C@H]2O[C@@H](n3ccc(=O)[nH]c3=O)[C@H](OS(=O)(=O)O)C2(F)F)[C@H](O)[C@@H]1O
[1]
  inhibition: 29%

## O=c1[nH]c(=O)n([C@H]2C[C@H](O)[C@@H](CO)O2)cc1F [FLOXURIDINE]
Streptococcus pyogenes
  MIC: 0.003 mg/L

## Nc1ccn([C@@H]2O[C@H](CO)[C@@H](O)C2(F)F)c(=O)n1 [GEMCITABINE]
Staphylococcus aureus [2]
  MIC: 0.002 mg/L

## NC[C@H]1O[C@@H](O[C@@H](c2cn(CCCCCCCCCCOc3ccc(C(=O)c4ccccc4)cc3)nn2)[C@H]2O[C@@H](n3ccc(=O)[nH]c3=O)[C@H](O)[C@@H]2O)[C@H](O)[C@@H]1O
Staphylococcus aureus [3]
  MIC: 8 mg/L (≈ 10.3 µM)

## Nc1ncnc2c1ncn2[C@@H]1O[C@H](COS(=O)(=O)NC(=O)[C@@H]2CCCN2)[C@@H](O)[C@H]1O
Proline--tRNA ligase
  Ki: 0.0043 µM

## CSCC[C@H](NC(=O)NC(Cc1cccc(O)c1)C(=O)O)C(=O)NC(CN(C)C(=O)[C@@H](N)C(N)Cc1cccc(O)c1)C(=O)N/C=C1/C[C@@H](O)[C@H](n2ccc(=O)[nH]c2=O)O1 (stereo partly specified)
Pseudomonas aeruginosa [4]
  ED50: 0.05 mg/kg
Pseudomonas aeruginosa [5]
  MIC: 1.5 mg/L (≈ 1.75 µM)

## C[C@H](N)C(=O)N(C)CCOC[C@H]1O[C@@H](n2ccc(=O)[nH]c2=O)[C@H](O)[C@@H]1O
[6]
  inhibition: 97%

## C[C@H](N)C(=O)N[C@@H](C)[C@H](NC(=O)[C@H](C)NC(=O)N[C@@H](Cc1c[nH]c2ccccc12)C(=O)O)C(=O)N/C=C1\O[C@@H](n2ccc(=O)[nH]c2=O)[C@H](O)[C@@H]1O
[7]
  IC50: 0.042 µM

## CCCCCCCCCCCCCCCCC(=O)NC(CCCCCCCCCCCCCCC)C(=O)[C@H](NCCCC(=O)NCCCCNC(=N)N)[C@H](O[C@@H]1O[C@H](CN)[C@@H](O)[C@H]1O)[C@H]1O[C@@H](n2ccc(=O)[nH]c2=O)[C@H](O)[C@@H]1O (stereo partly specified)
Pseudomonas aeruginosa [8]
  MIC: 4 mg/L (≈ 3.56 µM)

## Nc1ncnc2c1ncn2[C@@H]1O[C@H](COP(=O)(O)OCC(N)Cc2ccc(O)cc2)[C@@H](O)[C@H]1O (stereo partly specified)
[9]
  Ki: 0.011 µM

## C[C@@H](NC(=O)NC(Cc1cccc(O)c1)C(=O)O)C(=O)N[C@H](C(=O)N/C=C1/C[C@@H](O)[C@H](n2ccc(=O)[nH]c2=O)O1)[C@H](C)N(C)C(=O)[C@@H](N)C(N)c1cccc(O)c1 (stereo partly specified)
Pseudomonas aeruginosa [10]
  MIC: 32 mg/L

## Cc1cn([C@H]2C[C@H](N=[N+]=[N-])[C@@H](CO)O2)c(=O)[nH]c1=O [ZIDOVUDINE]
Escherichia coli
  MIC: 10 mg/L (≈ 37.4 µM)

## CSCC[C@H](NC(=O)NC(Cc1cccc(O)c1)C(=O)O)C(=O)NC(CN(C)C(=O)[C@@H](N)C(N)Cc1cccc(O)c1)C(=O)N/C=C1/C[C@@H](O)[C@H](N2CCC(=O)NC2=O)O1 (stereo partly specified)
Pseudomonas aeruginosa [4]
  ED50: > 0.1 mg/kg
Pseudomonas aeruginosa [5]
  MIC: 1.5 mg/L (≈ 1.75 µM)

## NC[C@H]1O[C@@H](O[C@@H](Cc2cn(CCCCCCCCCCc3ccccc3)nn2)[C@H]2O[C@@H](n3ccc(=O)[nH]c3=O)[C@H](O)[C@@H]2O)[C@H](O)[C@@H]1O
Candida albicans
  MIC: 20 mg/L (≈ 29.7 µM)
[11]
  IC50: 8 µM

## NC[C@H]1O[C@@H](O[C@@H](Cn2cc(CCCCCCCCOc3ccc(C(=O)c4ccccc4)cc3)nn2)[C@H]2O[C@@H](n3ccc(=O)[nH]c3=O)[C@H](O)[C@@H]2O)[C@H](O)[C@@H]1O
Staphylococcus aureus [3]
  MIC: 8 mg/L (≈ 10.5 µM)
[11]
  IC50: 8 µM

## CN(C[C@H](NC(=O)[C@H](CC[S+](C)[O-])NC(=O)N[C@@H](Cc1c[nH]c2ccccc12)C(=O)O)C(=O)N/C=C1/C[C@@H](O)[C@H](n2ccc(=O)[nH]c2=O)O1)C(=O)[C@@H](N)Cc1cccc(O)c1 (stereo partly specified)
Pseudomonas aeruginosa [12]
  MIC: 8 mg/L
[13]
  MIC: 8 mg/L (≈ 9.24 µM)
